Measurements published in ChEMBL document CHEMBL1201862, “PubChem BioAssay data set” (2004).
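Five concentrations, 48 hours, 96-well plates. The concentration for 50% growth inhibition is given as GI50.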 Activity calls are given as the source filed them. Rule as the data show it: active = GI50 up to about 1.1 µM and inactive = higher.

Assays:
Test in all cases: NCI tumour cell line growth inhibition, 48 h
786-0 = system: 786-0
A498 = system: A498
A549 = system: A549
ACHN = system: ACHN
BT-549 = system: BT-549
CAKI-1 = system: CAKI-1
COLO 205 = system: COLO 205
DU-145 = system: DU-145
EKVX = system: EKVX
HCC 2998 = system: HCC 2998
HCT-116 = system: HCT-116
HCT-15 = system: HCT-15
HL-60 = system: HL-60
HOP-62 = system: HOP-62
HOP-92 = system: HOP-92
HT-29 = system: HT-29
Hs-578T = system: Hs-578T
IGROV-1 = system: IGROV-1
K562 = system: K562
KM12 = system: KM12
LOX IMVI = system: LOX IMVI
M14 = system: M14
MCF7 = system: MCF7
MDA-MB-231 = system: MDA-MB-231
MDA-MB-435 = system: MDA-MB-435
Malme-3M = system: Malme-3M
NCI-H226 = system: NCI-H226
NCI-H23 = system: NCI-H23
NCI-H460 = system: NCI-H460
NCI-H522 = system: NCI-H522
NCI/ADR-RES = system: NCI/ADR-RES
OVCAR-3 = system: OVCAR-3
OVCAR-5 = system: OVCAR-5
OVCAR-8 = system: OVCAR-8
PC-3 = system: PC-3
RPMI-8226 = system: RPMI-8226
RXF 393 = system: RXF 393
SF-268 = system: SF-268
SF-539 = system: SF-539
SK-MEL-28 = system: SK-MEL-28
SK-MEL-2 = system: SK-MEL-2
SK-MEL-5 = system: SK-MEL-5
SK-OV-3 = system: SK-OV-3
SN12C = system: SN12C
SNB-19 = system: SNB-19
SR = system: SR
SW-620 = system: SW-620
T47D = system: T47D
TK-10 = system: TK-10
U-251 = system: U-251
UACC-257 = system: UACC-257
UACC-62 = system: UACC-62
UO-31 = system: UO-31
CCRF-CEM = system: CCRF-CEM
MOLT-4 = system: MOLT-4
OVCAR-4 = system: OVCAR-4
SF-295 = system: SF-295
SNB-75 = system: SNB-75

`CC(Br)CN1CCOCC1` (stereo unspecified) was tested, and the GI50 (786-0) was > 100 µM (inactive), the GI50 (A498) was > 100 µM (inactive) and the GI50 (A549) was > 100 µM (inactive). The GI50 (ACHN) was > 100 µM (inactive), the GI50 (BT-549) was > 100 µM (inactive) and the GI50 (CAKI-1) was > 100 µM (inactive). The GI50 (COLO 205) was > 100 µM (inactive), the GI50 (DU-145) was > 100 µM (inactive) and the GI50 (EKVX) was > 100 µM (inactive). For the same compound, the GI50 (HCC 2998) was > 100 µM (inactive), the GI50 (HCT-116) was > 100 µM (inactive) and the GI50 (HCT-15) was > 100 µM. The GI50 (HL-60) was 10.5 µM (inactive), the GI50 (HOP-62) was > 100 µM (inactive) and the GI50 (HOP-92) was > 100 µM (inactive). For the same compound, the GI50 (HT-29) was > 100 µM (inactive), the GI50 (Hs-578T) was > 100 µM (inactive) and the GI50 (IGROV-1) was > 100 µM (inactive). The GI50 (K562) was 50 µM (inactive), the GI50 (KM12) was > 100 µM (inactive) and the GI50 (LOX IMVI) was > 100 µM (inactive). For the same compound, the GI50 (M14) was > 100 µM (inactive), the GI50 (MCF7) was > 100 µM (inactive) and the GI50 (MDA-MB-231) was > 100 µM (inactive). For the same compound, the GI50 (MDA-MB-435) was > 100 µM (inactive), the GI50 (Malme-3M) was > 100 µM (inactive) and the GI50 (NCI-H226) was > 100 µM (inactive). The GI50 (NCI-H23) was > 100 µM (inactive), the GI50 (NCI-H460) was > 100 µM (inactive) and the GI50 (NCI-H522) was > 100 µM (inactive). For the same compound, the GI50 (NCI/ADR-RES) was > 100 µM (inactive), the GI50 (OVCAR-3) was > 100 µM (inactive) and the GI50 (OVCAR-5) was > 100 µM (inactive). For the same compound, the GI50 (OVCAR-8) was > 100 µM (inactive), the GI50 (PC-3) was > 100 µM (inactive) and the GI50 (RPMI-8226) was > 100 µM (inactive). The GI50 (RXF 393) was > 100 µM (inactive), the GI50 (SF-268) was > 100 µM (inactive) and the GI50 (SF-539) was > 100 µM (inactive). The GI50 (SK-MEL-28) was > 100 µM (inactive), the GI50 (SK-MEL-2) was > 100 µM (inactive) and the GI50 (SK-MEL-5) was > 100 µM (inactive). The GI50 (SK-OV-3) was > 100 µM (inactive), the GI50 (SN12C) was > 100 µM (inactive) and the GI50 (SNB-19) was > 100 µM (inactive). For the same compound, the GI50 (SR) was 13.9 µM (inactive), the GI50 (SW-620) was > 100 µM (inactive) and the GI50 (T47D) was > 100 µM (inactive). The GI50 (TK-10) was > 100 µM (inactive), the GI50 (U-251) was > 100 µM (inactive) and the GI50 (UACC-257) was > 100 µM (inactive). The GI50 (UACC-62) was > 100 µM (inactive) and the GI50 (UO-31) was > 100 µM (inactive).
In the case of `COc1nc(N)nc2c1ncn2C1CC(O)C(CO)O1` (stereo unspecified), the GI50 (786-0) is reported as > 100 µM (inactive), the GI50 (A498) is reported as > 100 µM (inactive) and the GI50 (A549) is reported as > 100 µM (inactive). The GI50 (ACHN) was > 100 µM (inactive), the GI50 (BT-549) was > 100 µM (inactive) and the GI50 (CAKI-1) was > 100 µM (inactive). For the same compound, the GI50 (CCRF-CEM) was > 100 µM (inactive), the GI50 (COLO 205) was > 100 µM (inactive) and the GI50 (DU-145) was > 100 µM (inactive). For the same compound, the GI50 (EKVX) was > 100 µM (inactive), the GI50 (HCT-116) was > 100 µM (inactive) and the GI50 (HCT-15) was > 100 µM. For the same compound, the GI50 (HL-60) was > 100 µM (inactive), the GI50 (HOP-62) was > 100 µM (inactive) and the GI50 (HOP-92) was > 100 µM (inactive). The GI50 (HT-29) was > 100 µM (inactive), the GI50 (Hs-578T) was > 100 µM (inactive) and the GI50 (IGROV-1) was > 100 µM (inactive). The GI50 (K562) was > 100 µM (inactive), the GI50 (KM12) was > 100 µM (inactive) and the GI50 (LOX IMVI) was > 100 µM (inactive). The GI50 (M14) was > 100 µM (inactive), the GI50 (MCF7) was > 100 µM (inactive) and the GI50 (MDA-MB-231) was > 100 µM (inactive). The GI50 (MDA-MB-435) was > 100 µM (inactive), the GI50 (MOLT-4) was > 100 µM (inactive) and the GI50 (Malme-3M) was > 100 µM (inactive). The GI50 (NCI-H226) was > 100 µM (inactive), the GI50 (NCI-H23) was > 100 µM (inactive) and the GI50 (NCI-H460) was > 100 µM (inactive). The GI50 (NCI-H522) was > 100 µM (inactive), the GI50 (NCI/ADR-RES) was > 100 µM (inactive) and the GI50 (OVCAR-3) was > 100 µM (inactive). The GI50 (OVCAR-4) was > 100 µM (inactive), the GI50 (OVCAR-5) was > 100 µM (inactive) and the GI50 (OVCAR-8) was > 100 µM (inactive). The GI50 (PC-3) was > 100 µM (inactive), the GI50 (RPMI-8226) was > 100 µM (inactive) and the GI50 (RXF 393) was > 100 µM (inactive). The GI50 (SF-268) was > 100 µM (inactive), the GI50 (SF-295) was > 100 µM (inactive) and the GI50 (SF-539) was > 100 µM (inactive). The GI50 (SK-MEL-28) was > 100 µM (inactive), the GI50 (SK-MEL-2) was > 100 µM (inactive) and the GI50 (SK-MEL-5) was > 100 µM (inactive). For the same compound, the GI50 (SK-OV-3) was > 100 µM (inactive), the GI50 (SN12C) was > 100 µM (inactive) and the GI50 (SNB-19) was > 100 µM (inactive). The GI50 (SNB-75) was > 100 µM (inactive), the GI50 (SR) was > 100 µM (inactive) and the GI50 (SW-620) was > 100 µM (inactive). The GI50 (T47D) was > 100 µM (inactive), the GI50 (TK-10) was > 100 µM (inactive) and the GI50 (U-251) was > 100 µM (inactive). The GI50 (UACC-257) was > 100 µM (inactive), the GI50 (UACC-62) was > 100 µM (inactive) and the GI50 (UO-31) was > 100 µM (inactive).
`CC(=O)OC1=C(c2ccccc2)S(=O)(=O)c2ccccc21` was tested, and the GI50 (786-0) was > 100 µM (inactive), the GI50 (A498) was > 100 µM (inactive) and the GI50 (A549) was > 100 µM (inactive). For the same compound, the GI50 (ACHN) was > 100 µM (inactive), the GI50 (BT-549) was > 100 µM (inactive) and the GI50 (CAKI-1) was > 100 µM (inactive). For the same compound, the GI50 (CCRF-CEM) was 96.4 µM (inactive), the GI50 (COLO 205) was > 100 µM (inactive) and the GI50 (DU-145) was > 100 µM (inactive). The GI50 (EKVX) was > 100 µM (inactive), the GI50 (HCC 2998) was > 100 µM (inactive) and the GI50 (HCT-116) was > 100 µM (inactive). For the same compound, the GI50 (HCT-15) was > 100 µM, the GI50 (HL-60) was > 100 µM (inactive) and the GI50 (HOP-62) was > 100 µM (inactive). For the same compound, the GI50 (HOP-92) was > 100 µM (inactive), the GI50 (HT-29) was > 100 µM (inactive) and the GI50 (Hs-578T) was > 100 µM (inactive). For the same compound, the GI50 (IGROV-1) was > 100 µM (inactive), the GI50 (K562) was > 100 µM (inactive) and the GI50 (KM12) was > 100 µM (inactive). The GI50 (LOX IMVI) was > 100 µM (inactive), the GI50 (M14) was > 100 µM (inactive) and the GI50 (MCF7) was > 100 µM (inactive). The GI50 (MDA-MB-231) was > 100 µM (inactive), the GI50 (MDA-MB-435) was > 100 µM (inactive) and the GI50 (MOLT-4) was > 100 µM (inactive). The GI50 (Malme-3M) was > 100 µM (inactive), the GI50 (NCI-H226) was > 100 µM (inactive) and the GI50 (NCI-H23) was > 100 µM (inactive). For the same compound, the GI50 (NCI-H460) was > 100 µM (inactive), the GI50 (NCI-H522) was > 100 µM (inactive) and the GI50 (NCI/ADR-RES) was > 100 µM (inactive). For the same compound, the GI50 (OVCAR-3) was > 100 µM (inactive), the GI50 (OVCAR-4) was > 100 µM (inactive) and the GI50 (OVCAR-5) was > 100 µM (inactive). For the same compound, the GI50 (OVCAR-8) was > 100 µM (inactive), the GI50 (PC-3) was > 100 µM (inactive) and the GI50 (RPMI-8226) was > 100 µM (inactive). For the same compound, the GI50 (RXF 393) was 64 µM (inactive), the GI50 (SF-268) was > 100 µM (inactive) and the GI50 (SF-295) was > 100 µM (inactive). For the same compound, the GI50 (SF-539) was > 100 µM (inactive), the GI50 (SK-MEL-28) was > 100 µM (inactive) and the GI50 (SK-MEL-2) was > 100 µM (inactive). The GI50 (SK-MEL-5) was > 100 µM (inactive), the GI50 (SNB-19) was > 100 µM (inactive) and the GI50 (SNB-75) was > 100 µM (inactive). For the same compound, the GI50 (SR) was > 100 µM (inactive), the GI50 (SW-620) was > 100 µM (inactive) and the GI50 (T47D) was > 100 µM (inactive). For the same compound, the GI50 (TK-10) was > 100 µM (inactive), the GI50 (U-251) was > 100 µM (inactive) and the GI50 (UACC-257) was > 100 µM (inactive). The GI50 (UACC-62) was > 100 µM (inactive) and the GI50 (UO-31) was > 100 µM (inactive).
